According to patent US6506758B2, “Indole derivatives useful A.O. for the treatment of osteoporosis” (SmithKline Beecham Laboratoires Pharmceutiques, priority 1997, dated 2003):

Assays:
[1] = target: bafilomycin-sensitive ATPase of chicken osteoclast; experiment: Inhibition of bafilomycin-sensitive ATPase activity in purified chicken osteoclast membrane vesicles (Pi release); assay type: biochemical; conditions: membrane source not given, chicken osteoclast assumed
Procedure: Preparation of Crude Bone Microsomes from Calcium-starved Egg-laying Hens
Vesicles were prepared from medullar bone obtained from tibiae and femurs or egg-laying hens which were calcium-starved for at least 15 days. Briefly, bone fragments were scraped with a 24 scalpel blade, suspended in 40 ml of isolation medium (0.2 M sucrose, 50 mM KCl, 10 mM Hepes, 1 mM EGTA, 2 mM dithiotheitrol, pH 7.4) and filtered through a 100 μm pore size nylon mesh. The whole procedure was performed at 4° C. After homogenisation in a potter (20 strokes) in 40 ml of isolation medium an initial centrifugation (6,500×gmax×20 min) was performed to remove mitochondria and lysosomes. The supernatant was centrifuged at 100,000×gmax for 1 hr and the pellet was collected in 1 ml of isolation medium, divided into 200 μl aliquots, immediately frozen in liquid nitrogen and stored at −80° C. The protein content was determined using a Biorad colourimetric kit according to Bradford [M. Bradford, Anal. Biochem., 72, 248 (1976)]. For the proton transport assay, 5-10 μl of membranes were used.
Purification of osteoclast membranes. 1 ml of crude microsomal vesicles prepared above were applied (about 0.2 ml per tube ) on the top of a sucrose step-gradient consisting of 3.5 ml of 15%, 30% and 45% (w/w) sucrose in isolation medium and centrifuged at 280,000 gmax for 2 h (SW 41 Ti rotor). After centrifugation the 30-45% sucrose interfaces were collected, diluted approx. 20-fold in isolation medium and pelletted at 100,000 gmax for 1 hour (SW 28 rotor). […]
Inhibition of bafilomycin-sensitive ATPase activity was assessed in purified membrane vesicles by measuring the release of inorganic phosphate (Pi) during 30 min of incubation at 37° C. in a 96-well plate either in the presence or in the absence of bafilomycin A1. […] Absorbance at 650 nm was measured after 2 min using a microplate reader. Results are expressed as nmol (Pi)×mg protein^−1×min^−1 and, for each experiment, represent the mean±sem of triplicates.

[2] = target: bafilomycin-sensitive ATPase in human kidney membranes; experiment: Inhibition of bafilomycin-sensitive ATPase in human kidney membranes; assay type: biochemical; conditions: read-out: IC50 h kidney
Procedure: Human kidney membranes were obtained from the cortex of a human kidney, frozen immediately after surgery, according to the method reported in the literature for bovine kidney (S. Gluck, J Biol. Chem., 265, 21957 (1990)).
Inhibition of bafilomycin-sensitive ATPase activity was assessed in purified membrane vesicles by measuring the release of inorganic phosphate (Pi) during 30 min of incubation at 37° C. in a 96-well plate either in the presence or in the absence of bafilomycin A1. The reaction medium contained 1 mM ATP, 10 mM HEPES-Tris pH 8, 50 mM KCl, 5 uM valinomycin, 5 uM nigericin, 1 mM CDTA-Tris,100 uM ammonium molybdate, 0.2 M sucrose and membranes (20 ug protein/ml). The reaction was initiated by MgSO4 (8-arm pipette) and stopped, after 30 min, by addition of 4 volumes of the malachite green reagent (96-arm pipette) prepared according to Chan [Anal. Biochem. 157, 375 (1986)]. Absorbance at 650 nm was measured after 2 min using a microplate reader. Results are expressed as nmol (Pi)×mg protein^−1×min^−1 and, for each experiment, represent the mean±sem of triplicates.

In the case of `CN1C(C)(C)CC(NC(=O)c2ccc(-c3cc4cc(Cl)c(Cl)cc4[nH]3)cc2)CC1(C)C` [Example 1, 4-(5,6-Dichloro-1H-indol-2-yl)-N-(1,2,2,6,6-pentamethypiperidin-4-yl)benzamide], the IC50 [1] is reported as 0.35 µM and the IC50 [2] is reported as 1250 nM.
Work on `CN(C)CCCNC(=O)c1cccc(-c2cc3cc(Cl)c(Cl)cc3[nH]2)c1` [Example 5, 3-(5,6-Dichloro-1H-indol-2-yl)-N-(3-dimethylaminopropyl)benzamide] yielded a melting point of 204 °C.
In the case of `COc1cc(C(=O)NC2CC(C)(C)N(C)C(C)(C)C2)ccc1-c1cc2cc(Cl)c(Cl)cc2[nH]1` [Example 2, 4-(5,6-Dichloro-1H-indol-2-yl)-3-methoxy-N-(1,2,2,6,6-pentamethylpiperidin-4yl)-benzamide], the IC50 [1] is reported as 0.096 µM and the IC50 [2] is reported as 200 nM.
Compound `COc1cc(-c2cc3cc(Cl)c(Cl)cc3[nH]2)ccc1C(=O)NC1CC(C)(C)N(C)C(C)(C)C1` [Example 3, 4-(5,6-Dichloro-1H-indol-2-yl)-2-methoxy-N-(1,2,2,6,6-pentamethylpiperidin-4-yl)-benzamide] has an IC50 [1] of 1.3 µM.
